B1: MDGI/FABP: mammary derived growth inhibitor / fatty acid binding protein, a 15 kDa protein of the milk fat globule membrane (protein, UniProt P10790 2-133, looked up)
Fatty acid-binding protein, …: VDAFVGTWKLVDSKNFDDYMKSLGVGFATRQVGNMTKPTTIIEVNGDTVIIKTQSTFKNTEISFKLGVEFDETTADDRKVKSIVTLDGGKLVHVQKWNGQETSLVREMVDGKLILTLTHGTAVCTRTYEKQA
B2: bST: recombinant bovine somatotropin, growth hormone approved for use in dairy cows (protein, UniProt P01246 27-217, looked up)
Somatotropin: AFPAMSLSGLFANAVLRAQHLHQLAADTFKEFERTYIPEGQRYSIQNTQVAFCFSETIPAPTGKNEAQQKSDLELLRISLLLIQSWLGPLQFLSRVFTNSLVFGTSDRVYEKLKDLEEGILALMRELEDGTPRAGQILKQTYDKFDTNMRSDDALLKNYGLLSCFRKDLHKTETYLRVMKCRRFGEASCAF

Key:
[1] = tested on: protein kinase activity of the resident proteins present in the MFGM; experiment: Auto-phosphorylation of MFGM proteins with γ 32P-ATP, detected by SDS-PAGE and autoradiography; format: biochemical, bovine; details: for effect on the phosphorylation pattern: valinomycin with or without KCl, ionophore A23187 + CaCl2
Method: MFGM and skim milk membranes (SMM) were incubated with γ ^32 P-ATP in the presence of protein phosphatase inhibitors (vanadate, 8-glycerophosphate, phosphotyrosine, phosphoserine, phosphothreonine, p-nitrophenyl phosphate) and 5 mM MgCl, and/or 3 mM MnCl, led to phosphorylation of proteins, as detected by SDS-PAGE and autoradiography. In the bovine MFGM, […] main radiolabelled protein bands were detected and ranged from 13-200 kDa (13, 15, 21, 24, 32, 35, 39, 45, 51, 66, 75, 100, 130, 200). In the human MFGM, 8 bands were indentified and ranged between 20-150 kDa five main bands corresponding to 51, 65, 66, 100, and 130, and three weaker bands corresponding to 21, 24 and 27 kDa. Phosphorylation of bovine skim milk membrane (SMM) proteins was observed only after the addition of 0.1% Triton X-100 to membranes. In this case, the three-four main radioactive bands were detected in a zone between 32 and 35 kDa, and one band in the 75 kDa range.
The presence of phosphatase inhibitors in the kinase media was necessary to see maximal levels of protein phosphorylation. The phosphorylation reaction would not take place when Mg^2+ and Mn^2+ were substituted for Ca^2+. Genistein, an inhibitor of protein tyrosine kinase activity caused approximately 50% inhibition of phosphorylation.
It is believed that the observed phosphorylation was a result of Mg^2+ or Mn^2+ --dependent protein kinase activity of the resident proteins present in the MFGM.

[2] = tested on: bovine mammary and human breast cancer cells; details: including bovine mammary and human breast cancer cells; cited from earlier work
[3] = tested on: fatty acid binding protein (FABP/MDGI); experiment: FABP phosphorylation in MFGM of milk from cows treated with bST (15 kDa band intensity on electrophoresis gel, FIG. 1); format: in vivo, cow; details: for phosphorylated 15 kDa protein (FABP) relative to non-bST treated control cow: FIG. 1
Method: The test for determining whether an animal has been treated with bST is performed by: 1) isolating the milk fat globule membranes (MFGM); 2) phosphorylating the MFGM; 3) and detecting the levels of phosphorylation of FABP in MFGM.
Milk fat globule membranes (MFGM) are prepared from the cream of fresh bovine milk. Between 100-200 ml fresh bovine milk from cows administered bST are collected. The cream is obtained by centrifugation of milk at 3,000×g for 20 min. It is then suspended in two volumes of 10 mM phosphate buffer, pH 7.4, containing 0.9% NaCl (PBS), and homogenized in a Warring blender for 45 sec. The homogenate is centrifuged at 100,000×g for 90 min. The MFGM pellet is washed once by resuspension in an initial volume of PBS, followed by centrifugation at 100,000×gfor 90 min. No cells (somatic cells) are found in the MFGM, as determined by light microscopy. MFGM may be either used immediately or stored at -80' C. for future use.
FABP/MDGI is involved in the binding and transport of milk fatty acids.
FIG. 1 is a bar graph showing intensity of a band on an electrophoresis gel showing FABP phosphorylation at the 15 kDalton level. The non-bST treated cow was used as a control. A sample from a milk bulk tank containing milk from cows treated with bST has only about a quarter of the phosphorylated 15 kDa protein.

Molecule | effect on the phosphorylation pattern [1] | further results
O=c1c(-c2ccc(O)cc2)coc2cc(O)cc(O)c12 [Genistein] | – | inhibition of phosphorylation ([1]; kinase media with phosphatase inhibitors): approximately 50%
CNc1ccc2oc(C[C@H]3O[C@@]4(CC[C@H]3C)O[C@H]([C@H](C)C(=O)c3ccc[nH]3)[C@H](C)C[C@H]4C)nc2c1C(=O)O [ionophore A23187] | did not significantly alter | –
CC(C)[C@@H]1NC(=O)[C@H](C)OC(=O)[C@@H](C(C)C)NC(=O)[C@@H](C(C)C)OC(=O)[C@H](C(C)C)NC(=O)[C@H](C)OC(=O)[C@@H](C(C)C)NC(=O)[C@@H](C(C)C)OC(=O)[C@H](C(C)C)NC(=O)[C@H](C)OC(=O)[C@@H](C(C)C)NC(=O)[C@@H](C(C)C)OC1=O [valinomycin] | did not significantly alter | –
CC1OC(OC2CC(O)C3(CO)C4C(O)CC5(C)C(C6=CC(=O)OC6)CCC5(O)C4CCC3(O)C2)C(O)C(O)C1O (stereo not drawn) [Oubain] | did not significantly alter | –
C(=NC1CCCCC1)=NC1CCCCC1 [DCCD, dicyclohexylcarbodimide] | did not significantly alter | –
C=C1[C@@H]2CC[C@H]3[C@]4(C)C[C@H](O[C@@H]5O[C@H](CO)[C@@H](OS(=O)(=O)O)[C@H](OS(=O)(=O)O)[C@H]5OC(=O)CC(C)C)C[C@@H](C(=O)O)[C@H]4CC[C@]3(C2)[C@H]1O [atractyloside] | did not significantly alter | –
N#CC(C#N)=NNc1cccc(Cl)c1 [CCCP, carbonyl-cyanide-m-chlorophenyl hydrazone] | did not significantly alter | –
B1 | – | growth of various cell types [2]: inhibits the growth
B2 | – | levels of phosphorylated MDGI/FABP ([3]; MFGM isolated from cows treated with bST vs non treated cows): significantly reduced; FABP autophosphorylation activity ([3]; cows treated with bST vs non treated cows): weaker; phosphorylated 15 kDa protein (FABP) relative to non-bST treated control cow ([3]; individual cows treated with bST): significant decrease; phosphorylated 15 kDa protein (FABP) relative to non-bST treated control cow ([3]; milk bulk tank sample containing milk from cows treated with bST): about a quarter

Reference: US5635401A, “Method to detect hormone treatment in animals” (Cornell Research Foundation, Inc., priority 1995, dated 1997)
